Here are results for one molecule from patent US20160184246A1, “TRANSDERMAL DRUG DELIVERY SYSTEMS FOR AGOMELATINE” (Noven Pharmaceuticals, Inc., priority 2014, published 2016).

Series [1] relates to serum hepatic transaminases. Conditions: in vivo; cited from earlier work.
Series [2] in a line: Pharmacokinetics of oral agomelatine (background). Conditions: current commercial oral dosage, humans. The class given is in vivo, human. On the procedure:
Oral dosage forms (tablets) of agomelatine have been approved in Europe under the trade names Valdoxan, Melitor, and Thymanax. Each tablet contains 25 mg agomelatine, prescribed at an initial dose of 1 tablet taken at bedtime, which dose may be increased to 2 tablets (50 mg) as needed. Oral agomelatine is well absorbed (although greater in women than in men), however, oral bioavailability is only 5% with large variations. The limited bioavailability is believed to be due to heavy first-pass liver metabolism, predominantly by cytochrome CYP1A2 of the P450 isoenzyme system, which results in conjugated metabolites of hydroxylated and demethylated agomelatine. […] The agomelatine oral tablet product produces a human plasma concentration-time pharmacokinetic (PK) profile with a Cmax of about 6 ng/ml, declining thereafter thereafter with a t1/2 of less than 2 hours.

Series [3] in a line: Solubility of agomelatine in water or aqueous isopropanol (IPA). In kind it is physicochemical. Conditions: 32° C. The method, then:
The solubility of agomelatine in water or different concentrations of aqueous isopropanol (IPA) was assessed. As shown in the table below, the solubility of agomelatine in aqueous IPA solutions increased with increasing IPA content. Agomelatine was formulated at its saturation concentration in different concentrations of aqueous IPA and drug flux through human cadaver skin was assessed using a modified Franz-cell apparatus, using 0.1 mL solution per cm^2.

For series [4] the following is noted: cited from earlier work.
For series [5] the following is noted: cited from earlier work. This is another data set of the same source.

≈ marks a conversion by molar mass, not a printed value.

One may read the solubility as the dissolved amount per volume that the medium holds. With `COc1ccc2cccc(CCNC(C)=O)c2c1` [Agomelatine, N-[2-(7-methoxynaphthalen-1-yl)ethyl]acetamide], in series [1], the “increases in serum hepatic transaminases” value was “as high as three times the upper limit of normal range”. Moreover, in series [1], the “individuals with increases in serum hepatic transaminases” value is “up to 1%”. For the same molecule, in series [2], the “systemic delivery of agomelatine after hepatic metabolism” value fell in the range of 1.25 to 2.5 mg. The solubility in series [3] (0 (water)) was 0.4 mg/mL (≈ 1.64 mM); in series [3] (25 v/v % aqueous isopropanol, aqueous with cosolvent or surfactant or cyclodextrin, 25 v/v % aqueous IPA) it was 3 mg/mL (≈ 12.3 mM); in series [3] (50 v/v % aqueous isopropanol, aqueous with cosolvent or surfactant or cyclodextrin, 50 v/v % aqueous IPA), 51 mg/mL (≈ 210 mM); in series [3] (75 v/v % aqueous isopropanol, aqueous with cosolvent or surfactant or cyclodextrin, 75 v/v % aqueous IPA), 139 mg/mL (≈ 571 mM); in series [3] (90 v/v % aqueous isopropanol, aqueous with cosolvent or surfactant or cyclodextrin, 90 v/v % aqueous IPA), more than 150 mg/mL. In addition, the solubility in water in series [4] is 0.2 mg/mL (≈ 0.822 mM). Also, in series [5] (in vivo), the “bound to plasma protein” value is listed as 95%. In addition, the “plasma half-life (t1/2)” value in series [5] (in vivo) is 1 to 2 h. Further, the oral bioavailability in series [5] (oral) was 5%.
